Results: paper PMC8119466, “A screen of FDA-approved drugs identifies inhibitors of protein tyrosine phosphatase 4A3 (PTP4A3 or PRL-3)” (Scientific Reports, 2021)
Like-named read-outs stand apart in the source and are kept apart here.

Columns and labels:
Assay type in all cases: biochemical
recombinant PRL-3 = target: T1, recombinant PRL-3 (Homo sapiens, UniProt O75365); assay: In vitro phosphatase assay (DiFMUP hydrolysis), PRL-3; also: test concentration or dose not given here
T1 construct: 6xHis (N, cleaved yes); made in house; host or cells: E. coli One Shot BL21 Star
T1 sequence (O75365 whole entry): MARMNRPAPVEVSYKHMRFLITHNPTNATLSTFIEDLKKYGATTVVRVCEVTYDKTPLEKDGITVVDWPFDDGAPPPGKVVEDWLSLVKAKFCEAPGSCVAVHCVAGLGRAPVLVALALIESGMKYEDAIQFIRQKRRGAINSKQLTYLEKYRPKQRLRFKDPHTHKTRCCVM

recombinant PRL-2 = target: T2, recombinant PRL-2 (Homo sapiens, UniProt Q12974); assay: In vitro phosphatase assay (DiFMUP hydrolysis), PRL-2;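 also: PRL-2 activity read as DiFMUP hydrolysis after 20 min at room temperature with drug, enzyme first pre-reduced at 4 °C for 20 min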
T2 construct: 6xHis (N, cleaved yes); made in house; host or cells: E. coli One Shot BL21 Star
T2 sequence (Q12974 1-167): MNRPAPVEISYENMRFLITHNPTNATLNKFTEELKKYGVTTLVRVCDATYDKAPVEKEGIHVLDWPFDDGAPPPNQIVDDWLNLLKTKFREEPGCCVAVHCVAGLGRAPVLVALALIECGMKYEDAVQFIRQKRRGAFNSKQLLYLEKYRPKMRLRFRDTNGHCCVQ

recombinant PRL-1 = target: T3, recombinant PRL-1 (Homo sapiens, UniProt Q93096); assay: In vitro phosphatase assay (DiFMUP hydrolysis), PRL-1; also: test concentration or dose not given here
T3 construct: 6xHis (N, cleaved yes); made in house; host or cells: E. coli One Shot BL21 Star
T3 sequence (Q93096 1-173): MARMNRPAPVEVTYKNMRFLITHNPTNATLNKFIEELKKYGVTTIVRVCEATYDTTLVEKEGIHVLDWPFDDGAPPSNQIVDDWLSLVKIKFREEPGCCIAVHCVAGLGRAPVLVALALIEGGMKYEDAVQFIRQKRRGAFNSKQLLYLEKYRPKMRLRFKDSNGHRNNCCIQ

[1] = FDA-approved drug screen, compared to DMSO

SMILES: CCN1CCN(C(=O)N[C@@H](C(=O)N[C@@H]2C(=O)N3[C@@H]2SC(C)(C)[C@@H]3C(=O)O)c2ccccc2)C(=O)C1=O [Piperacillin Sodium]
- % Phosphatase Activity (compared to DMSO) PRL-3 (recombinant PRL-3; [1]): 73%
- % Phosphatase Activity (compared to DMSO) PRL-2 (recombinant PRL-2; [1]): 91%
- % Phosphatase Activity (compared to DMSO) PRL-1 (recombinant PRL-1; [1]): 86%

SMILES: C1CNCCN1 [Piperazine]
- % Phosphatase Activity (compared to DMSO) PRL-3 (recombinant PRL-3): 71%
- % Phosphatase Activity (compared to DMSO) PRL-2 (recombinant PRL-2): 112%
- % Phosphatase Activity (compared to DMSO) PRL-1 (recombinant PRL-1): 95%

SMILES: O=C(/C=C/C=C/c1ccc2c(c1)OCO2)N1CCCCC1 [Piperine]
- % Phosphatase Activity (compared to DMSO) PRL-3 (recombinant PRL-3; [1]): 106%
- % Phosphatase Activity (compared to DMSO) PRL-2 (recombinant PRL-2; [1]): 119%
- % Phosphatase Activity (compared to DMSO) PRL-1 (recombinant PRL-1; [1]): 125%

SMILES: NC(=O)CN1CCCC1=O [Piracetam]
- % Phosphatase Activity (compared to DMSO) PRL-3 (recombinant PRL-3; [1]): 83%
- % Phosphatase Activity (compared to DMSO) PRL-2 (recombinant PRL-2; [1]): 96%
- % Phosphatase Activity (compared to DMSO) PRL-1 (recombinant PRL-1; [1]): 98%

SMILES: Cc1ccc(=O)n(-c2ccccc2)c1 [Pirfenidone]
- % Phosphatase Activity (compared to DMSO) PRL-3 (recombinant PRL-3; [1]): 97%
- % Phosphatase Activity (compared to DMSO) PRL-2 (recombinant PRL-2; [1]): 137%
- % Phosphatase Activity (compared to DMSO) PRL-1 (recombinant PRL-1; [1]): 114%

SMILES: CCn1cc(C(=O)O)c(=O)c2cnc(N3CCCC3)nc21 [Piromidic Acid]
- % Phosphatase Activity (compared to DMSO) PRL-3 (recombinant PRL-3; [1]): 96%
- % Phosphatase Activity (compared to DMSO) PRL-2 (recombinant PRL-2; [1]): 106%
- % Phosphatase Activity (compared to DMSO) PRL-1 (recombinant PRL-1; [1]): 105%

SMILES: CN1C(C(=O)Nc2ccccn2)=C(O)c2ccccc2S1(=O)=O [Piroxicam]
- % Phosphatase Activity (compared to DMSO) PRL-3 (recombinant PRL-3; [1]): 70%
- % Phosphatase Activity (compared to DMSO) PRL-2 (recombinant PRL-2; [1]): 76%
- % Phosphatase Activity (compared to DMSO) PRL-1 (recombinant PRL-1; [1]): 88%

SMILES: O=C(O)C[C@H](O)C[C@H](O)/C=C/c1c(C2CC2)nc2ccccc2c1-c1ccc(F)cc1 [Pitavastatin Calcium]
- % Phosphatase Activity (compared to DMSO) PRL-3 (recombinant PRL-3; [1]): 92%
- % Phosphatase Activity (compared to DMSO) PRL-2 (recombinant PRL-2; [1]): 88%
- % Phosphatase Activity (compared to DMSO) PRL-1 (recombinant PRL-1; [1]): 82%

SMILES: CN1CCC(=C2c3ccccc3CCc3sccc32)CC1.O=C(O)CC(O)C(=O)O [Pizotifen Malate]
- % Phosphatase Activity (compared to DMSO) PRL-3 (recombinant PRL-3; [1]): 95%
- % Phosphatase Activity (compared to DMSO) PRL-2 (recombinant PRL-2; [1]): 109%
- % Phosphatase Activity (compared to DMSO) PRL-1 (recombinant PRL-1; [1]): 114%

SMILES: Nc1cccc2c1C(=O)N(C1CCC(=O)NC1=O)C2=O (stereo not drawn) [Pomalidomide]
- % Phosphatase Activity (compared to DMSO) PRL-3 (recombinant PRL-3; [1]): 204%
- % Phosphatase Activity (compared to DMSO) PRL-2 (recombinant PRL-2; [1]): 248%
- % Phosphatase Activity (compared to DMSO) PRL-1 (recombinant PRL-1; [1]): 264%

SMILES: Cc1ccc(C(=O)Nc2ccc(CN3CCN(C)CC3)c(C(F)(F)F)c2)cc1C#Cc1cnc2cccnn12 [Ponatinib (AP24534)]
- % Phosphatase Activity (compared to DMSO) PRL-3 (recombinant PRL-3; [1]): 319%
- % Phosphatase Activity (compared to DMSO) PRL-2 (recombinant PRL-2; [1]): 417%
- % Phosphatase Activity (compared to DMSO) PRL-1 (recombinant PRL-1; [1]): 396%

SMILES: CCC/N=C1\S/C(=C\c2ccc(OC[C@H](O)CO)c(Cl)c2)C(=O)N1c1ccccc1C [Ponesimod]
- % Phosphatase Activity (compared to DMSO) PRL-3 (recombinant PRL-3; [1]): 86%
- % Phosphatase Activity (compared to DMSO) PRL-2 (recombinant PRL-2; [1]): 79%
- % Phosphatase Activity (compared to DMSO) PRL-1 (recombinant PRL-1; [1]): 88%

SMILES: CC[C@@H]([C@H](C)O)n1ncn(-c2ccc(N3CCN(c4ccc(OC[C@@H]5CO[C@@](Cn6cncn6)(c6ccc(F)cc6F)C5)cc4)CC3)cc2)c1=O [Posaconazole]
- % Phosphatase Activity (compared to DMSO) PRL-3 (recombinant PRL-3; [1]): 73%
- % Phosphatase Activity (compared to DMSO) PRL-2 (recombinant PRL-2; [1]): 99%
- % Phosphatase Activity (compared to DMSO) PRL-1 (recombinant PRL-1; [1]): 89%

SMILES: [I-].[K+] [Potassium Iodide]
- % Phosphatase Activity (compared to DMSO) PRL-3 (recombinant PRL-3; [1]): 87%
- % Phosphatase Activity (compared to DMSO) PRL-2 (recombinant PRL-2; [1]): 91%
- % Phosphatase Activity (compared to DMSO) PRL-1 (recombinant PRL-1; [1]): 94%

SMILES: C=CC(=O)N1CCC(Oc2cc3c(Nc4ccc(Cl)c(Cl)c4F)ncnc3cc2OC)CC1 [Poziotinib (HM781-36B)]
- % Phosphatase Activity (compared to DMSO) PRL-3 (recombinant PRL-3; [1]): 106%
- % Phosphatase Activity (compared to DMSO) PRL-2 (recombinant PRL-2; [1]): 80%
- % Phosphatase Activity (compared to DMSO) PRL-1 (recombinant PRL-1; [1]): 96%

SMILES: CCCCc1nc2cc(/C=C/C(=O)NO)ccc2n1CCN(CC)CC [Pracinostat (SB939)]
- % Phosphatase Activity (compared to DMSO) PRL-3 (recombinant PRL-3; [1]): 80%
- % Phosphatase Activity (compared to DMSO) PRL-2 (recombinant PRL-2; [1]): 87%
- % Phosphatase Activity (compared to DMSO) PRL-1 (recombinant PRL-1; [1]): 96%

SMILES: C#CCC(Cc1cnc2nc(N)nc(N)c2n1)c1ccc(C(=O)N[C@@H](CCC(=O)O)C(=O)O)cc1 (stereo partly drawn) [Pralatrexate]
- % Phosphatase Activity (compared to DMSO) PRL-3 (recombinant PRL-3; [1]): 875%
- % Phosphatase Activity (compared to DMSO) PRL-2 (recombinant PRL-2; [1]): 1210%
- % Phosphatase Activity (compared to DMSO) PRL-1 (recombinant PRL-1; [1]): 1180%
